Laboratory results reported in ChEMBL document CHEMBL5303304, “EUbOPEN Chemogenomics Library - IncuCyte” (2023).

What was measured:
Format in all cases: toxicity, cell-based
[1] = system: HEK-293T; test: Incucyte cell viability with HEK293T; conditions: human, 10 µM, compound concentration 10 uM
[2] = system: Fibroblast; test: Incucyte cell viability with human fibroblast; conditions: 10 µM, compound concentration 10 uM
[3] = system: U2OS; test: Incucyte cell viability with U2OS; conditions: human, 10 µM, compound concentration 10 uM
Further: unitless GR value; below 1 slowed growth and below 0 cell loss.

SMILES | Growth Rate ([1]; 6 h, replicate number 2) | Growth Rate ([1]; 12 h, replicate number 2) | Growth Rate ([1]; 18 h, replicate number 2) | Growth Rate ([1]; 24 h, replicate number 2) | Growth Rate ([2]; 6 h, replicate number 1) | Growth Rate ([2]; 6 h, replicate number 2) | Growth Rate ([2]; 12 h, replicate number 1) | Growth Rate ([2]; 12 h, replicate number 2) | Growth Rate ([2]; 18 h, replicate number 1) | Growth Rate ([2]; 18 h, replicate number 2) | Growth Rate ([2]; 24 h, replicate number 2) | Growth Rate ([3]; 6 h, replicate number 2) | Growth Rate ([3]; 12 h, replicate number 2) | Growth Rate ([3]; 18 h, replicate number 1) | Growth Rate ([3]; 18 h, replicate number 2) | Growth Rate ([3]; 24 h, replicate number 1) | Growth Rate ([3]; 24 h, replicate number 2) | Growth Rate ([3]; 0 h, replicate number 1) | Growth Rate ([3]; 0 h, replicate number 2) | Growth Rate ([3]; 12 h, replicate number 1) | other results
Cn1nccc1-c1ccc(Sc2cccc(C3(C(N)=O)CCOCC3)c2)cc1 [PF-4191834] | -0.28 | -0.18 | 0 | 0.15 | -0.12 | 0.25 | 0 | 0.52 | -0.01 | 0.45 | 0.46 | 0.8 | 0.79 | 0.94 | 0.88 | 0.76 | 0.93 |  |  |  | Growth Rate ([1]; 0 h, replicate number 1): 0.41; Growth Rate ([1]; 6 h, replicate number 1): -0.02; Growth Rate ([1]; 12 h, replicate number 1): 0.37; Growth Rate ([1]; 18 h, replicate number 1): 0.29; Growth Rate ([1]; 24 h, replicate number 1): 0.31; Growth Rate ([2]; 0 h, replicate number 2): -0.66; Growth Rate ([2]; 24 h, replicate number 1): 0.22; Growth Rate ([3]; 6 h, replicate number 1): 0.7
COc1ccc(-c2cc3c(C)nc(N)nc3n([C@H]3CC[C@H](OCCO)CC3)c2=O)cn1 [PF-04691502] | -0.8 | -0.6 | -0.38 | -0.25 | 0.8 | 0.33 | 0.03 | -0.28 | -0.18 | -0.29 | -0.32 |  |  | 0.65 | 0.83 | 0.6 | 0.62 | -0.97 |  |  | Growth Rate ([1]; 6 h, replicate number 1): -0.19; Growth Rate ([1]; 12 h, replicate number 1): -0.29; Growth Rate ([1]; 18 h, replicate number 1): -0.17; Growth Rate ([1]; 24 h, replicate number 1): -0.14; Growth Rate ([2]; 0 h, replicate number 1): -1; Growth Rate ([2]; 24 h, replicate number 1): -0.23
C[C@@H](C(N)=O)[C@H](N)c1nc2cc(C(C)(C)C)ccc2[nH]1 [PF-06305591] | 0.51 | 0.9 | 0.91 | 0.94 | -0.98 |  | -0.52 |  |  | 0.77 |  |  | 0.86 |  | 0.91 | 0.95 | 0.99 | -0.1 | -0.8 | 0.69 | Growth Rate ([2]; 0 h, replicate number 1): 0.3
CNC(=O)c1ccc(C)c(-n2c(C)cc(OCc3ccc(F)cc3F)c(Br)c2=O)c1 [PH-797804] |  |  |  |  |  | 0.91 |  | 0.99 |  |  |  | 0.54 | 0.75 |  |  |  |  | -0.97 | 0.65 | 0.91 | Growth Rate ([1]; 0 h, replicate number 2): 0.72; Growth Rate ([2]; 0 h, replicate number 1): -0.91
CCCCCCCCCCCCCC(=O)O[C@@H]1[C@@H](C)[C@@]2(O)[C@@H](C=C(CO)C[C@]3(O)C(=O)C(C)=C[C@@H]23)[C@@H]2C(C)(C)[C@]12OC(C)=O [PHORBOL MYRISTATE ACETATE] |  |  | 0.99 | 0.75 | 0.89 | -1 | -1 | 0.09 |  | 0.85 | 0.78 |  |  | 0.96 | 0.92 | 0.96 | 0.72 |  | -1 | 0.98 | Growth Rate ([1]; 0 h, replicate number 1): 0.64; Growth Rate ([1]; 0 h, replicate number 2): -0.1; Growth Rate ([2]; 0 h, replicate number 2): -0.74
Cc1noc(C)c1-c1cnc2c(-c3ccc(C(=O)O)cc3)cn([C@@H](C)c3ccccn3)c2c1 [PLX-51107] |  | 0.89 | 0.62 | 0.48 |  | -0.59 | -0.99 | 0.35 | -0.39 | 0.36 | 0.49 |  |  |  |  | 0.93 | 1 | -0.72 | -0.91 | 0.94 | Growth Rate ([1]; 0 h, replicate number 1): 0.25; Growth Rate ([1]; 24 h, replicate number 1): 0.93; Growth Rate ([2]; 0 h, replicate number 1): -0.53; Growth Rate ([2]; 0 h, replicate number 2): -0.82; Growth Rate ([2]; 24 h, replicate number 1): -0.1; Growth Rate ([3]; 6 h, replicate number 1): 0.16
O=C(N[C@H]1CN2CCC1CC2)c1ccc(Cl)cc1 [PNU-282987] | 0.88 | 0.94 |  | 1 | -0.45 | -0.01 |  | 0.79 |  | 0.85 | 0.81 | 0.78 |  | 0.75 | 0.8 | 0.94 | 0.86 |  | -0.61 | 0.84 | 
CC1(C)CCC[C@]2(C)[C@@H](C=O)C(C=O)=CC[C@@H]12 [POLYGODIAL] | 0.55 | 0.7 | 0.81 | 0.87 |  | -1 |  | 0.42 | -0.77 | 0.83 | 0.73 | 0.73 | 0.57 |  | 0.76 |  | 0.88 | 0.45 | -0.79 |  | Growth Rate ([1]; 6 h, replicate number 1): -0.32; Growth Rate ([1]; 12 h, replicate number 1): 0.22; Growth Rate ([1]; 18 h, replicate number 1): 0.52; Growth Rate ([1]; 24 h, replicate number 1): 0.8; Growth Rate ([2]; 24 h, replicate number 1): 0.41
CC(C)[C@H](CO)Nc1nc(Nc2ccc(C(=O)O)c(Cl)c2)c2ncn(C(C)C)c2n1 [PURVALANOL B] |  |  |  |  |  |  |  |  | 0.88 |  |  | 0.56 | 0.95 |  |  |  |  | -0.96 | 0.8 |  | Growth Rate ([1]; 18 h, replicate number 1): 0.9; Growth Rate ([1]; 24 h, replicate number 1): 1; Growth Rate ([2]; 0 h, replicate number 1): -0.93
C=C[C@H]1C[N@@]2CC[C@H]1C[C@@H]2[C@@H](O)c1ccnc2ccc(OC)cc12 [QUINIDINE] | 0.85 |  |  |  | 0.36 | 0.17 | -1 | 0.9 |  | 1 | 0.74 | -0.07 | 0.65 | 0.93 | 0.73 | 0.96 | 0.83 |  | -1 | 0.59 | Growth Rate ([2]; 0 h, replicate number 1): -0.43
c1ccc2nc(N3CCNCC3)ccc2c1 [QUIPAZINE] | 0.5 | 0.95 |  |  | 0.27 | 0.04 | -0.91 | 0.92 | 0.52 | 0.72 | 0.58 | 0.58 |  | 0.94 |  |  |  | -0.85 |  | 0.55 | Growth Rate ([1]; 6 h, replicate number 1): 0.43; Growth Rate ([2]; 0 h, replicate number 1): 0.15; Growth Rate ([2]; 0 h, replicate number 2): 0.79; Growth Rate ([2]; 24 h, replicate number 1): 0.85
O=C(Nc1ccc(Oc2ccc(Cl)cc2)c(Cl)c1)c1cc(I)cc(I)c1O [RAFOXANIDE] | 0.49 | 0.91 |  |  | -0.56 |  | -1 |  |  |  |  |  | 0.74 | 0.88 |  |  |  | 0.6 | -1 | 0.92 | Growth Rate ([1]; 6 h, replicate number 1): -0.37; Growth Rate ([1]; 12 h, replicate number 1): -0.61; Growth Rate ([1]; 18 h, replicate number 1): -0.55; Growth Rate ([1]; 24 h, replicate number 1): -0.48; Growth Rate ([2]; 0 h, replicate number 2): -0.93; Growth Rate ([3]; 6 h, replicate number 1): 0.57
O=C(O)CCn1c2c(c3ccccc31)C[C@H](NS(=O)(=O)c1ccc(F)cc1)CC2 [RAMATROBAN] |  |  |  |  |  |  |  | 0.99 |  | 0.89 | 0.74 |  |  |  |  |  |  | 0.53 |  |  | Growth Rate ([1]; 0 h, replicate number 1): 0.1; Growth Rate ([1]; 0 h, replicate number 2): 0.04; Growth Rate ([3]; 6 h, replicate number 1): 0.88
CCOc1cc(CC(=O)N[C@@H](CC(C)C)c2ccccc2N2CCCCC2)ccc1C(=O)O [REPAGLINIDE] |  |  |  |  |  |  |  | 0.38 |  | 0.61 | 0.86 |  | 0.94 |  | 0.96 | 0.99 |  |  |  |  | Growth Rate ([1]; 0 h, replicate number 1): 0.91; Growth Rate ([1]; 0 h, replicate number 2): 0.8
CCN(C(=O)c1cc(F)ccc1Oc1cncnc1N1CC2(CCN(C[C@H]3CC[C@H](NS(=O)(=O)CC)CC3)CC2)C1)C(C)C [REVUMENIB] | 0.24 | 0.53 | 0.48 | 0.38 | 0.15 | 0.81 | 0.94 |  | 0.79 | 0.88 | 0.93 | 0.45 | 0.79 | 0.77 | 0.76 | 0.76 | 0.67 | 0.19 | 0.45 | 0.8 | Growth Rate ([1]; 0 h, replicate number 1): -0.33; Growth Rate ([1]; 0 h, replicate number 2): 0.43; Growth Rate ([2]; 0 h, replicate number 2): 0.3; Growth Rate ([2]; 24 h, replicate number 1): 0.88; Growth Rate ([3]; 6 h, replicate number 1): 0.62
